B1: rOat3 (Rattus norvegicus) (protein)
chain: MTFSEILDRVGSMGPFQYLHVTLLALPVLGIANHNLLQIFTATTPVHHCRPPPNASIGPWVLPLDPNGKPEKCLRFVHLPNASLPNDTQRATEPCLDGWIYNSTRDTIVIEWDLVCSSNKLKEMAQSIFMAGILVGGPVIGELSDRFGRKPILTWSYLMLAASGSGAAFSPSLPVYMIFRFLCGCSISGISLSTVILNVEWVPTSMRAISSTSIGYCYTIGQFILSGLAYAIPQWRWLQLTSSAPFFIFSLLSWWVPESIRWLVLSGKYSKALKTLQRVATFNGKKEEGKKLTIEELKFNLQKDITSAKVKYGLSDLFRVSILRRVTFCLSLAWFSTGFAYYSLAMGVEEFGVNIYILQIIFGGVDIPAKFITILSLSYLGRRITQSFLLLLAGGAILALIFVPSEMQLLRTALAVFGKGCLSGSFSCLFLYTSELYPTVLRQTGMGISNVWARVGSMIAPLVKITGELQPFIPNVIFGTTALLGGSAAFFLLETLNRPLPETIEDIQNWHKQVQKTKQESEAEKASQIIPLKTGG

What was measured:
[1] = cited from earlier work
[2] = substrate: O=C(O)c1ccc(C(=O)O)c(-c2c3ccc(=O)cc-3oc3cc(O)ccc23)c1; experiment: 6-CF uptake by rOat3-expressing HEK293 cells; format: cell-based, rat; conditions: other: HEK293-rOat3, 2 min, 37 °C, pH 7.4, 1-100 μM 6-CF

| Molecule | Binding to serum protein [1] | Km [2] |
| --- | --- | --- |
| carboxyfluorescein | ~90% | – |
| B1 | – | 2.52 ± 0.48 µM |

Reference: article PMC7893792 (ACS Omega, 2021)
